Results from patent US7396837B2, “Antitumoral analogs of lamellarins” (Pharma Mar, S.A.U., priority 2002, dated 2008).

Tests used:
PANC-1 = test: SRB colorimetric cell growth inhibition assay, PANC-1; format: cell-based
Procedure, shortened: (§1)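 Continuous-exposure format, human tumour lines. SRB colour reaction quantifies growth/viability. Triplicate wells → mean ± SD → GI, TGI, LC.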

IGROV-ET = test: SRB colorimetric cell growth inhibition assay, IGROV-ET (ET-743 resistant); format: cell-based
Procedure, shortened: as §1

LoVo = test: SRB colorimetric cell growth inhibition assay, LoVo; format: cell-based
Procedure, shortened: as §1

HT-29 = test: SRB colorimetric cell growth inhibition assay, HT-29; format: cell-based
Procedure, shortened: as §1

SK-BR-3 = test: SRB colorimetric cell growth inhibition assay, SK-BR-3; format: cell-based
Procedure, shortened: as §1

DU-145 = test: SRB colorimetric cell growth inhibition assay, DU-145; format: cell-based
Procedure, shortened: as §1

A-549 = test: SRB colorimetric cell growth inhibition assay, A-549; format: cell-based
Procedure, shortened: as §1

LoVo-Dox = test: SRB colorimetric cell growth inhibition assay, LoVo-Dox (MDR); format: cell-based
Procedure, shortened: as §1

K-562 = test: SRB colorimetric cell growth inhibition assay, K-562; format: cell-based
Procedure, shortened: as §1

IGROV = test: SRB colorimetric cell growth inhibition assay, IGROV; format: cell-based
Procedure, shortened: as §1

SK-MEL-28 = test: SRB colorimetric cell growth inhibition assay, SK-MEL-28; format: cell-based
Procedure, shortened: as §1

LNCaP = test: SRB colorimetric cell growth inhibition assay, LNCaP; format: cell-based
Procedure, shortened: as §1

human topoisomerase I = target: T1, human topoisomerase I (Homo sapiens, UniProt P11387); test: Topoisomerase I DNA relaxation assay (supercoiled plasmid DNA); format: biochemical; conditions: supercoiled plasmid DNA, each compound tested at 1 μM, agarose gel with ethidium bromide
T1 sequence (P11387 1-765): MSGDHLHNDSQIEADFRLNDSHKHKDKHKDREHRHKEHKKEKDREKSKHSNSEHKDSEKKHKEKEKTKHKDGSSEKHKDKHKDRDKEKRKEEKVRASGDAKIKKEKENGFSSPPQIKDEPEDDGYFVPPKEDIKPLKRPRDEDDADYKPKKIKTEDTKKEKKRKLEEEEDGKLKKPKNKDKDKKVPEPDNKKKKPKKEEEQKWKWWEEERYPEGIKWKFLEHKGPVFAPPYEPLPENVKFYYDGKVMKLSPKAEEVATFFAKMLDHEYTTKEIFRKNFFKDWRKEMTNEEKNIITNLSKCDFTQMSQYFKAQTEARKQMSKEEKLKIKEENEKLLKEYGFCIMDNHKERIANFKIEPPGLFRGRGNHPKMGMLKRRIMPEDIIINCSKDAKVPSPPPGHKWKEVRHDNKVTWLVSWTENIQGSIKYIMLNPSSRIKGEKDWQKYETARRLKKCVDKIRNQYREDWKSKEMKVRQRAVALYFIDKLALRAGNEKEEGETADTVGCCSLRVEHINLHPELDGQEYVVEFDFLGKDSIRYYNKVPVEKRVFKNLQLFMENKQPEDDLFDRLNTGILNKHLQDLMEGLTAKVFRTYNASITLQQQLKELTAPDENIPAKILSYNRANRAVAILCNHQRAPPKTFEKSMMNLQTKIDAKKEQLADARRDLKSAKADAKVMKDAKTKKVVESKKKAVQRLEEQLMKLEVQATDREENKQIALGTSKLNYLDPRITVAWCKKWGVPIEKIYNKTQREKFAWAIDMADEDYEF
Description: Two assays, based on DNA relaxation and DNA cleavage (Bailly, C. DNA relaxation and cleavage assays to study topoisomerase I inhibitors. Methods Enzymol. 2001, 340, 610-623) were used evaluate the effects of the lamellarin analogs on the catalytic activity of human topoisomerase I.
In the first assay, a supercoiled plasmid DNA was relaxed with topoisomerase I in the absence or presence of the test compounds, each tested at 1 μM. DNA relaxation products were then resolved by gel electrophoresis on agarose gels containing ethidium bromide to stain the DNA.

## COc1cc(-c2c3n(c4c(=O)oc5cc(OC(=O)[C@@H](N)C(C)C)c(OC)cc5c24)CCc2cc(OC(=O)[C@@H](N)C(C)C)c(OC)cc2-3)ccc1OC(=O)[C@@H](N)C(C)C [Compound 135]
PANC-1; Homo sapiens, PANC-1, PANC-1, total growth inhibition (cytostatic effect), read-out: TGI PANC-1
  IC (TGI): 5.53 µM
PANC-1; Homo sapiens, PANC-1, read-out: LC50 PANC-1, PANC-1, cell killing (cytotoxic effect)
  CC50: 8.76 µM
PANC-1; PANC-1, GI=growth inhibition, read-out: GI50 PANC-1
  GI50: 2.11 µM
IGROV-ET; IGROV-ET, GI=growth inhibition, read-out: GI50 IGROV-ET
  GI50: 0.586 µM
IGROV-ET; IGROV-ET, total growth inhibition (cytostatic effect)
  TGI IGROV-ET: 1.98E−06 Molar
IGROV-ET; human
  CC50: 6.33 µM
LoVo; Homo sapiens, LoVo, read-out: LC50 LOVO, LOVO, cell killing (cytotoxic effect)
  CC50: 8.76 µM
LoVo; Homo sapiens, LOVO, total growth inhibition (cytostatic effect), read-out: TGI LOVO
  IC (TGI): 8.76 µM
LoVo; LOVO, GI=growth inhibition, read-out: GI50 LOVO
  GI50: 2.69 µM
HT-29; HT-29, GI=growth inhibition, read-out: GI50 HT-29
  GI50: 1.15 µM
HT-29; Homo sapiens, HT-29, HT-29, total growth inhibition (cytostatic effect), read-out: TGI HT-29
  IC (TGI): 4.82 µM
HT-29; Homo sapiens, HT-29, read-out: LC50 HT-29, HT-29, cell killing (cytotoxic effect)
  CC50: 8.76 µM
SK-BR-3; SK-BR-3, GI=growth inhibition, read-out: GI50 SK-BR-3
  GI50: 0.579 µM
SK-BR-3; SK-BR-3, total growth inhibition (cytostatic effect)
  TGI SK-BR-3: 2.61E−06 Molar
SK-BR-3; human
  CC50: 8.76 µM
DU-145; DU-145, GI=growth inhibition, read-out: GI50 DU-145
  GI50: 1.6 µM
DU-145; DU-145, total growth inhibition (cytostatic effect)
  TGI DU-145: 3.78E−06 Molar
DU-145; human
  CC50: 8.76 µM
A-549; A-549, GI=growth inhibition, read-out: GI50 A-549
  GI50: 3.34 µM
A-549; Homo sapiens, A549, A-549, total growth inhibition (cytostatic effect), read-out: TGI A-549
  IC (TGI): 8.76 µM
A-549; Homo sapiens, A549, read-out: LC50 A-549, A-549, cell killing (cytotoxic effect)
  CC50: 8.76 µM
LoVo-Dox; Homo sapiens, LOVO-DOX, total growth inhibition (cytostatic effect), read-out: TGI LOVO-DOX
  IC (TGI): 8.76 µM
LoVo-Dox; Homo sapiens, read-out: LC50 LOVO-DOX, LOVO-DOX, cell killing (cytotoxic effect)
  CC50: 8.76 µM
LoVo-Dox; LOVO-DOX, GI=growth inhibition, read-out: GI50 LOVO-DOX
  GI50: 3.8 µM
K-562; Homo sapiens, K562, K-562, total growth inhibition (cytostatic effect), read-out: TGI K-562
  IC (TGI): 6.82 µM
K-562; Homo sapiens, K562, read-out: LC50 K-562, K-562, cell killing (cytotoxic effect)
  CC50: 8.76 µM
K-562; K-562, GI=growth inhibition, read-out: GI50 K-562
  GI50: 1.07 µM
IGROV; IGROV, GI=growth inhibition, read-out: GI50 IGROV
  GI50: 2.1 µM
IGROV; IGROV, total growth inhibition (cytostatic effect)
  TGI IGROV: 4.68E−06 Molar
IGROV; human
  CC50: 8.76 µM
SK-MEL-28; MEL-28, GI=growth inhibition, read-out: GI50 MEL-28
  GI50: 1.67 µM
SK-MEL-28; MEL-28, total growth inhibition (cytostatic effect)
  TGI MEL-28: 5.00E−06 Molar
SK-MEL-28; human
  CC50: 8.76 µM
LNCaP; LN-caP, GI=growth inhibition, read-out: GI50 LN-caP
  GI50: 0.783 µM
LNCaP; LN-caP, total growth inhibition (cytostatic effect)
  TGI LN-caP: 2.02E−06 Molar
LNCaP; human
  CC50: 4.91 µM
Human topoisomerase I
  stimulation of DNA cleavage by topoisomerase I / inhibition of topoisomerase I (nicked DNA band) in DNA relaxation assay: No effect

## COc1cc(-c2c3n(c4c(=O)oc5cc(OC(=O)c6cc(F)c(F)c(F)c6F)c(OC)cc5c24)CCc2cc(OC(=O)c4cc(F)c(F)c(F)c4F)c(OC)cc2-3)ccc1OC(=O)c1cc(F)c(F)c(F)c1F [Compound 139]
Human topoisomerase I
  stimulation of DNA cleavage by topoisomerase I / inhibition of topoisomerase I (nicked DNA band) in DNA relaxation assay: inactive

## COc1cc(-c2c3n(c4c(=O)oc5cc(OC(=O)[C@@H](NC(=O)OC(C)(C)C)C(C)C)c(OC)cc5c24)CCc2cc(OC(=O)[C@@H](NC(=O)OC(C)(C)C)C(C)C)c(OC)cc2-3)ccc1OC(=O)[C@@H](NC(=O)OC(C)(C)C)C(C)C [Compound 144]
Human topoisomerase I
  stimulation of DNA cleavage by topoisomerase I / inhibition of topoisomerase I (nicked DNA band) in DNA relaxation assay: No effect
